Experimental data from BindingDB's records for PubMed 8437101 (University of Pennsylvania, 1993).
pKi: −log10 of the molar value. Where a name gives a salt, the structure may show the parent alone.

Biological target: D(3) dopamine receptor (Rattus norvegicus, UniProt P19020)
Sequence (P19020 whole entry): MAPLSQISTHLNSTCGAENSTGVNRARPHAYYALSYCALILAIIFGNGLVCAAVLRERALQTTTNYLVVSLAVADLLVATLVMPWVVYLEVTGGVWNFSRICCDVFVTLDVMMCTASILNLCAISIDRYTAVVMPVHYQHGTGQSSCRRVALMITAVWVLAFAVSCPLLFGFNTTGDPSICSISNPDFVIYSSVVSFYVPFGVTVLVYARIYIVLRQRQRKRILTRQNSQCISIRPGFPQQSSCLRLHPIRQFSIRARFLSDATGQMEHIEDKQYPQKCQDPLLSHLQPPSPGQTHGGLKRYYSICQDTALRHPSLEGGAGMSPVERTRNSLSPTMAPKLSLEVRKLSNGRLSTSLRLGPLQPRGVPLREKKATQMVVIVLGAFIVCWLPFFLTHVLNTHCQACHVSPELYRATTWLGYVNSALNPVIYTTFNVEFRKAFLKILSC

Structure (SMILES)	pKi
CCCN[C@@H]1CCc2c(OC)cccc2[C@@H]1C	6.36
CN1CCN(C2=Nc3cc(F)ccc3Cc3ccccc32)CC1	6.59
COc1cc(N)c(Cl)cc1C(=O)N[C@@H]1C[C@H]2CCC[C@@H](C1)N2Cc1ccc(F)cc1 [BRL-34778]	9.55
CN1CCc2cccc3c2[C@H]1Cc1ccc(O)c(O)c1-3 [APOKYN]	7.36
OCCN1CCN(CCCN2c3ccccc3Sc3ccc(C(F)(F)F)cc32)CC1 [2-[4-[3-[2-(trifluoromethyl)phenothiazin-10-yl]propyl]piperazin-1-yl]ethanol;hydrochloride]	9.15
Cc1nc2n(c(=O)c1CCN1CCC(C(=O)c3ccc(F)cc3)CC1)CCS2 [CAS_86487-64-1]	6.97
CN1CCN(C2=Nc3ccccc3Cc3ccccc32)CC1	6.04
O=C(O)c1ccccc1C(=O)Nc1cccc2ccccc12 [NPA,(+)]	9.09
CCc1cc(Cl)c(OC)c(C(=O)NC[C@@H]2CCCN2CC)c1O [3-Chloro-5-ethyl-N-((S)-1-ethyl-pyrrolidin-2-ylmethyl)-6-hydroxy-2-methoxy-benzamide]	9.64
CCCN(CCC)C1C=Cc2c(OC)cccc2C1C (stereo not given) [CAS_5311190]	7.44
